According to US20240165274A1, “METHODS OF DETECTING SYSTEMIC AMYLOIDOSIS VIA BINDING TO MISFOLDED OR AGGREGATED PROTEIN” (Amydis, Inc., priority 2021, published 2024):
pKd: −log10 of the molar value.

Columns and labels:
aggregated TTR [1] = target: T1, aggregated TTR (Homo sapiens, UniProt P02766); assay: Fluorescence spectra of Compound 1 with TTR aggregates; conditions: excitation 440 nm; for Fluorescence fold increase: Compound 1 4 μM, emission 565 nm, RFI over Compound 1 alone
Protocol: Several aggregated TTR samples were prepared using different conditions as described below. • Aggregate A was prepared by resuspending TTR in 50 mM glycine buffer at a pH of about 3.6 and further incubating the same for 24 hours at room temperature. • Aggregate B1 was prepared by resuspending TTR in water at a pH of about 7.4, and further incubating the same for 7 days with stirring (200 rpm) maintained at 37° C. • Aggregate B2 was prepared by resuspending TTR in water at a pH of about 7.4, and further incubating the same for 14 days with stirring (200 rpm) maintained at 37° C.
Compound 1 (4 μM) was prepared with or without Aggregate B1 in 1× phosphate-buffered saline (PBS). The absorption, fluorescence, and excitation spectra were taken for both samples. The excitation wavelength was optimized to be 440 nm. The emission spectra thus received were adjusted against a blank solvent control to obtain relative fluorescence intensity (RFI) as a function of wavelengths.
Further, fluorescence spectra were taken on mixtures of Compound I (4 μM) with Aggregate A, B1, or B2, respectively, each at the concentration of 5 μM, at the emission wavelength of 565 nm, when excited at 440 nm. The increases in RFI over Compound 1 alone were calculated and are illustrated in Table 1: […]

aggregated TTR [2] = target: T1, aggregated TTR; assay: Binding affinity for Compound 1 with aggregated TTR (fluorescence titration, one site specific binding); conditions: 5 μM TTR, 4% DMSO/PBS pH 7.4; Compound 1 0 to 10 μM; RFI at λmax(em); FIG. 2
Protocol: A solution of DMSO/PBS (6 μL DMSO in 144 μL PBS, pH 7.4) was prepared as a blank control. Further, a 250 μM solution of Compound 1 in DMSO was prepared. The following samples were then prepared in triplicate while keeping a constant 5 μM TTR concentration in 4% DMSO/PBS:
Emission spectra were taken for each sample and adjusted against the blank over the range of 445-700 nm. RFI at λmax(em) was determined for each sample. RFI was then plotted against the increasing concentration of Compound 1 over the range of 0 to 10 μM using a one site specific binding algorithm. The binding affinity (Kd) was determined to be 0.3+/−0.1 μM. This is illustrated in FIG. 2.

[3] = system: TTR deposits in human tissues; assay: Staining of FFPE human tissue sections with vitreous amyloid, co-stained with TTR antibody; conditions: compound 60 μM, 30 minutes; adjacent sections stained with Congo red and H&E; present-tense example, binding 'contemplated'
Protocol: The following protocol was adopted for staining Formalin-Fixed Paraffin Embedded (FFPE) tissues: • 1. Deparaffinization and hydration of tissue sections: • Pre-heat @ 60° C. 1 hour • Place slides in holders and treat with the clearing agent xylene (paraffin solvent) and a series of graded ethanol (EtOH) as follows: • i. 100% xylene—5 min • ii. 100% xylene—5 min • iii. 50%/50% xylene/100% EtOH—3 min • iv. 100% EtOH—3 min • v. 95% EtOH—3 min • vi. 70% EtOH—3 min • vii. 50% EtOH—3 min • viii. Water—2×3 min. • 2. Antigen retrieval: incubate in 99% formic acid for 5 minutes. • 3. Wash with distilled water for 5 minutes. Repeat this step two times. • 4. Pre-heat 10 mM citrate buffer pH 6.0 to boiling. • 5. Place slides in staining chamber with heated citrate buffer for 20 minutes. • 6. Cool in water bath. Wash with distilled water for 5 minutes. Repeat this step two times. • 7. […]
Sections from tissues of vitreous amyloid with known TTR mutation (paraffin embedded tissue blocks) and an autopsy eyeball with vitreous amyloid (paraffin embedded organ) are respectively stained with hematoxylin and eosin (H&E) and Congo red to mark regions with amyloidosis. […] It is contemplated that Compound 1 binds to TTR deposits in human tissues and undergoes an increase in fluorescence emission in a manner similar to its increase in fluorescence in vitro in the presence of aggregated TTR as described in earlier examples.

Fluorescence fold increase (aggregated TTR [1]; Aggregate A 5 μM): 4.6 fold | Fluorescence fold increase (aggregated TTR [1]; Aggregate B1 5 μM): 2.3 fold | Fluorescence fold increase (aggregated TTR [1]; Aggregate B2 5 μM): 2.5 fold | increase of relative fluorescence intensity (RFI) in presence of aggregate (aggregated TTR [1]; Compound 1 4 μM with vs without Aggregate B1 in 1× PBS, FIG. 1): about 3.2 | pKd (aggregated TTR [2]): 6.52
Compound: COCCOCCOCCOC(=O)/C(C#N)=C/c1ccc2cc(N3CCCCC3)ccc2c1 [Compound 1]
regions of hyperfluorescence versus areas of amyloidosis [3]: correspond to areas of amyloidosis defined using Congo Red and H&E stains
